From PMC4339887, “Selective Sirt2 inhibition by ligand-induced rearrangement of the active site” (Nature Communications, 2015) come the findings set out here.

Entries after “also recorded” stand apart in the source; their conditions may differ.

As a reminder, the inhibition is how much of the control response was suppressed.

In one assay the test system is HeLa cells. Kind of assay: cell cycle analysis, propidium iodide flow cytometry. The settings on record: treated as for BubR1. It counts as cell-based. The protocol:
reader (BMG Polarstar, Oex 390 nm, Oem 460 nm). The amount of inhibition was determined with respect to the mixture with only DMSO.
Immunocytochemistry equipment and settings. The signal of Alexa 546 and DAPI of the same region were acquired with constant illumination parameters as grayscale 8-bit 600 dpi tiff files (1600u 1200 pixels). Alexa 546 was acquired after 639.1 ms with a gamma factor of 0.65 without multiplying. The gain was set to 1. DAPI-stained images were acquired after about 20 ms with the same parameters as the one for Alexa 546 image acquisition. The temperature in the microscope room was kept at RT. Representative regions of each samples were processed with Adobe Photoshop CS2 to generate images in RGB mode by copying the appropriate original greyscale images to the blue (nuclei, DAPI) and the red (acetylated D-tubulin signal, Alexa 546) channel, respectively. As adjustment, a minimal background subtraction was applied on all images during processing in the same manner. The resolution was changed from 600 dpi (source images) to 450 dpi without resampling (Fig. 7 of the main article). LUT (CLUT) of grayscale images of the acetylated D-tubulin signal and of the DAPI signal are shown in Supplementary Fig. 8.
Cell Cycle Analysis. […] Stained cells were subjected to flow cytometric analysis using a FACSCaliber (BD Biosciences) and analyzed by FlowJo software (Tree Star, Inc.).

Assay [1] deals with α-tubulin acetylation in HeLa cells. Kind of assay: tubulin acetylation, western blot. The settings on record: various concentrations, 5 h. It counts as cell-based. An excerpt: Cell samples were then separated using SDS–PAGE (12.5% (w/v) polyacrylamide), transferred to an activated nitrocellulose membrane (Bio-Rad), blocked with non-fat dry milk (Roth, 5% (w/v), TBS, 0.1% (v/v) Tween 20) and probed with an anti-acetyl-α-tubulin antibody (1:1,000, Sigma-Aldrich, T6793) and an anti-GAPDH antibody (1:2,000–1:5,000, Sigma-Aldrich, G9545) as a loading control (Fusion SL, peqlab). An uncropped blot is shown in Supplementary Fig. 8.
(In western blotting, separated proteins are transferred to a membrane and probed.)

For another assay, the target named is T1, Human Sirt2_56–356 (Homo sapiens, UniProt Q8IXJ6).
T1 construct: Human Sirt2_56–356 (0.2 mg ml^−1 final concentration); His10 (N, cleaved yes); made in house; host or cells: E. coli BL21(DE3)Codonplus RIPL
T1 sequence (Q8IXJ6 56-356): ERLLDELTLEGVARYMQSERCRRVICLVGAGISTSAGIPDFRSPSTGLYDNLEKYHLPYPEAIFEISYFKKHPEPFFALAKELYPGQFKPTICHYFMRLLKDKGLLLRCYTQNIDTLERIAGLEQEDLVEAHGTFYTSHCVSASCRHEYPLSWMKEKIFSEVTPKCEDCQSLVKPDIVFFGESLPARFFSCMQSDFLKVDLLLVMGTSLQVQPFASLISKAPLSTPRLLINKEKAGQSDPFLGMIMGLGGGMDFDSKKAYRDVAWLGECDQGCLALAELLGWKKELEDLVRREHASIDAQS
The assay can be described thus: competition analyses / inhibition kinetics, α-tubulin peptide, HPLC. It counts as biochemical. The settings on record: NAD+ competition analysis. An excerpt:
The peak areas were integrated and converted to initial velocities calculated from the peak areas as the fraction of deacetylated peptide from total peptide.

For the next assay, the target named is T2, human Sirt2 (Homo sapiens, UniProt Q8IXJ6).
T2 sequence (Q8IXJ6 25-389): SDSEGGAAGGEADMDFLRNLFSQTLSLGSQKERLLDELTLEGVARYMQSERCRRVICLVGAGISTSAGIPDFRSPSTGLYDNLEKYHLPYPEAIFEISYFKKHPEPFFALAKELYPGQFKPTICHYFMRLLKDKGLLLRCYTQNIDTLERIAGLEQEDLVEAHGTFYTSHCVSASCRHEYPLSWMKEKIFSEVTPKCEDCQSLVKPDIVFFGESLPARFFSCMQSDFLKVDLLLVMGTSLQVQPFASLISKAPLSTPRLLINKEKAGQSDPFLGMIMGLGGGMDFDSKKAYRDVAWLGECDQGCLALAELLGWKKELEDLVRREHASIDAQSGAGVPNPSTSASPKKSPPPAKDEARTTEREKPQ
The assay can be described thus: HPLC-based conversion assay, non-labelled acetyl-lysine α-tubulin peptide. The following applies: SirReal2 100 μM, non-labelled acetyl-lysine oligopeptide.

In a further assay the target is T3, human Sirt5 (Homo sapiens, UniProt Q9NXA8).
T3 construct: human Sirt5_34–302 (Uniprot: Q9NXA8); made in house
T3 sequence (Q9NXA8 34-302): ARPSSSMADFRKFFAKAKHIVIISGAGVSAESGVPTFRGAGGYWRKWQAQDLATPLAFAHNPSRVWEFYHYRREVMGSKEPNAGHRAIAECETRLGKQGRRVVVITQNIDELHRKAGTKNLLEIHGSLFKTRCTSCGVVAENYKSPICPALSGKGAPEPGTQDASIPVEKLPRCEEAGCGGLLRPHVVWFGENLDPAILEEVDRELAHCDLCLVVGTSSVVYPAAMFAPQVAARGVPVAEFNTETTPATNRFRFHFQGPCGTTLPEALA
The assay can be described thus: HPLC-based assay, non-labelled succinyl-lysine peptide. Type of assay: biochemical. The settings on record: 200 μM, succinyl-lysine substrate.

For another assay, the target named is T4, human Sirt1 (Homo sapiens, UniProt Q96EB6).
T4 sequence (Q96EB6 133-747): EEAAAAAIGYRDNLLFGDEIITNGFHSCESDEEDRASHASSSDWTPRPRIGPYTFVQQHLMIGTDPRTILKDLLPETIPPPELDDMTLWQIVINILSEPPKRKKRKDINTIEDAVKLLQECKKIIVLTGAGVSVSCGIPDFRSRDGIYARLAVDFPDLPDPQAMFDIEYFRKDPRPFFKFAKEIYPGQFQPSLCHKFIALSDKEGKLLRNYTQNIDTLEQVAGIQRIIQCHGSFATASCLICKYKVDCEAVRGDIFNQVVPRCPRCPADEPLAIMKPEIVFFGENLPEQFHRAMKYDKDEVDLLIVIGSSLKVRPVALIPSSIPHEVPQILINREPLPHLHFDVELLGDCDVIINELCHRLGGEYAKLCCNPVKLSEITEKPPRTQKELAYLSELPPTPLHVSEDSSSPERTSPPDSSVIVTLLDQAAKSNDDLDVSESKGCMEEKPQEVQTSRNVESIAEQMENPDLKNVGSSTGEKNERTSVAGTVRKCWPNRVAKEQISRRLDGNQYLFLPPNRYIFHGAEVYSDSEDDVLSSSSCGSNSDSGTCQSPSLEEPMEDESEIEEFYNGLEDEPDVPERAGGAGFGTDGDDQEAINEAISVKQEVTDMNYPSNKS
Kind of assay: HPLC-based conversion assay, non-labelled acetyl-lysine α-tubulin peptide. The settings on record: read-out: inhibition of Sirt1.

Regarding `Cc1cc(C)nc(SCC(=O)Nc2ncc(Cc3cccc4ccccc34)s2)n1` [SirReal2], the cell cycle distribution entry with HeLa cells is recorded as “did not alter”. The “level of α-tubulin acetylation” value in assay [1] is reported as “tubulin hyperacetylation; also recorded: significant increase”. In addition, the “mode of inhibition towards NAD+” value at Human Sirt2_56–356 is reported as “partially non-competitive”. The “activity of Sirt2” value at human Sirt2 is “substantially reduced”. On human Sirt5, the “effect on activity of Sirt5” value is recorded as “very little effect”. Also, the inhibition at 100 µM at human Sirt1 was determined as 22%.
